Reference: ChEMBL document CHEMBL1133078, “Isoxazolines and isoxazoles as factor Xa inhibitors” (Bioorg Med Chem Lett, 2000)

Assays:
[1] = organism: Oryctolagus cuniculus; assay: Concentration required to diminish the clot size by 50% in rabbit A-V shunt model of thrombosis; assay type: functional
[2] = molecular target: T1, Coagulation factor X (Oryctolagus cuniculus, UniProt O19045); assay: Inhibitory activity against rabbit Coagulation factor X
T1 sequence (O19045 whole entry): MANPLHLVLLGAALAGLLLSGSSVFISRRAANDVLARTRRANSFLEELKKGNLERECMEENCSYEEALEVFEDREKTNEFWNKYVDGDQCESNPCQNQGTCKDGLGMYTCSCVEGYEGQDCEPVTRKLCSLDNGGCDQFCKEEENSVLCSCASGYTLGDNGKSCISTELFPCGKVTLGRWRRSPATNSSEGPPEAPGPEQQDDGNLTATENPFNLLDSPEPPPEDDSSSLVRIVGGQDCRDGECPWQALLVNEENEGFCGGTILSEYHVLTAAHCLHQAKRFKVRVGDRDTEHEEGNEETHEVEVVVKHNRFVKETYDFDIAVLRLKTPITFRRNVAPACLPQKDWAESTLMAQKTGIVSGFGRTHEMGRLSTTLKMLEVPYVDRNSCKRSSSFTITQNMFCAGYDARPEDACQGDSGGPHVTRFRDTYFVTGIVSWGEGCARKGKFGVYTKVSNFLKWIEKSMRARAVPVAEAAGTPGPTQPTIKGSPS

[3] = Half-life after intravenous administration of 1 mg/kg/h in dog; assay type: ADME, organism-based, Canis lupus familiaris; design: route intravenous; conditions: in vivo
[4] = test system: Canis familiaris; assay: Volume of distribution after intravenous administration of 1 mg/kg/h in dog; assay type: ADME, organism-based, Canis lupus familiaris; design: route intravenous; conditions: in vivo
[5] = molecular target: T2, Serine protease 1 (Bos taurus, UniProt P00760); assay: Inhibitory activity against trypsin
T2 sequence (P00760 whole entry): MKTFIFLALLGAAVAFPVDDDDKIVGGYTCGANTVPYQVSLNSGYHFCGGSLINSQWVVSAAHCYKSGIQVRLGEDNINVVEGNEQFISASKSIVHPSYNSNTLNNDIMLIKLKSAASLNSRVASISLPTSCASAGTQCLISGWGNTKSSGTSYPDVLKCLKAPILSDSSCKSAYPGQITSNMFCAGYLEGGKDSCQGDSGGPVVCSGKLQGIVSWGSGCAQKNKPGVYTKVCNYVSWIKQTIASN

[6] = molecular target: Prothrombin (Homo sapiens, UniProt P00734); assay: Inhibitory activity against thrombin
[7] = Clearance value of compound was determined after intravenous administration of 1 mg/kg/h in dog; assay type: ADME, organism-based, Canis lupus familiaris; design: route intravenous; conditions: in vivo
[8] = molecular target: Coagulation factor X (Homo sapiens, UniProt P00742); assay: Inhibition of human Coagulation factor X
[9] = Volume of distribution after intravenous administration of 1 mg/kg/h in dog; conditions: in vivo

Sequence of Coagulation factor X (Homo sapiens, UniProt P00742) (P00742 41-179 limits assumed): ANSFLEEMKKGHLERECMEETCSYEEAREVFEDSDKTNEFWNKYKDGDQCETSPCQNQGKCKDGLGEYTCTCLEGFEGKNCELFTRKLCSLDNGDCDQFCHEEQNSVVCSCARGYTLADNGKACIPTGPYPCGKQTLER
Sequence of Coagulation factor X (Homo sapiens, UniProt P00742) (P00742 235-488 limits assumed): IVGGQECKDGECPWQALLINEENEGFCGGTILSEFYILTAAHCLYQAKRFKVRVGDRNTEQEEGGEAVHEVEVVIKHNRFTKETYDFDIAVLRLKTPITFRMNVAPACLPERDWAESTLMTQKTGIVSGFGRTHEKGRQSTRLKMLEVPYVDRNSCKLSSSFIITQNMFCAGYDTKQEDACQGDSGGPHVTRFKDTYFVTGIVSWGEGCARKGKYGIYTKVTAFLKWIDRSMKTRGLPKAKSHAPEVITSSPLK

Work on `N=C(N)c1cccc(-c2nocc2C(=O)Nc2ccc(-c3ccccc3S(N)(=O)=O)cc2)c1` yielded an ID50 [1] of 0.31 µM/h/kg, a Ki [2] of 0.4 nM and a half-life [3] of 4.3 h. For the same compound, the Vdss [4] was 1.7 L/kg, the Ki [5] was 21 nM and the Ki [6] was 2000 nM. It also gave a clearance [7] of 25 mL/min/kg.
`N=C(N)c1cccc(C2=NOC(Cn3cnnn3)(C(=O)Nc3ccc(-c4ccccc4S(N)(=O)=O)cc3)C2)c1` (stereo not drawn) gave a Ki [5] of 91 nM.
Compound `N=C(N)c1cccc(-c2noc(CO)c2C(=O)Nc2ccc(-c3ccccc3S(N)(=O)=O)cc2)c1` has a Ki [8] of 0.5 nM, a Ki [5] of 50 nM and a Ki [6] of 1900 nM.
With `CS(=O)(=O)c1ccccc1-c1ccc(NC(=O)c2conc2-c2cccc(C(=N)N)c2)cc1` the Ki [8] was 0.1 nM, the Ki [5] was 25 nM and the Ki [6] was 540 nM.
Compound `COCc1onc(-c2cccc(C(=N)N)c2)c1C(=O)Nc1ccc(-c2ccccc2S(N)(=O)=O)cn1` has a Ki [5] of 200 nM and a Ki [6] of 12000 nM.
Compound `N=C(N)c1cccc(C2=NO[C@H](Cn3cnnn3)[C@H]2C(=O)Nc2ccc(-c3ccccc3S(N)(=O)=O)cc2)c1` has a half-life [3] of 1 h, a Vdss [4] of 0.24 L/kg and a Ki [8] of 2.3 nM. It also gave a Ki [5] of 180 nM, a Ki [6] of 5700 nM and a clearance [7] of 8.17 mL/min/kg.
`COCC1(C(=O)Nc2ccc(-c3ccccc3S(N)(=O)=O)cc2)CC(c2cccc(C(=N)N)c2)=NO1` (stereo not drawn) showed an ID50 [1] of 0.26 µM/h/kg, a Ki [2] of 0.8 nM and a Ki [5] of 70 nM.
`COC[C@H]1ON=C(c2cccc(C(=N)N)c2)[C@@H]1C(=O)Nc1ccc(-c2ccccc2S(N)(=O)=O)cc1` showed an ID50 [1] of 0.21 µM/h/kg, a Vdss [9] of 0.38 L/kg and a Ki [2] of 0.64 nM. For the same compound, the half-life [3] was 1.2 h, the Ki [5] was 190 nM and the Ki [6] was 4600 nM. For the same compound, the clearance [7] was 16.5 mL/min/kg.
Compound `N=C(N)c1cccc(-c2noc(C(F)(F)F)c2C(=O)Nc2ccc(-c3ccccc3S(N)(=O)=O)cc2)c1` has a Ki [8] of 9.5 nM, a Ki [5] of 400 nM and a Ki [6] of 11000 nM.
`COCc1onc(-c2cccc(C(=N)N)c2)c1C(=O)Nc1ccc(-c2ccccc2S(N)(=O)=O)cc1` showed a half-life [3] of 1.2 h, a Vdss [4] of 0.85 L/kg and a Ki [8] of 0.63 nM. For the same compound, the Ki [5] was 76 nM, the Ki [6] was 3800 nM and the clearance [7] was 28.3 mL/min/kg.
With `N=C(N)c1cccc(-c2noc(N)c2C(=O)Nc2ccc(-c3ccccc3S(N)(=O)=O)cc2)c1` the Ki [8] was 3.4 nM, the Ki [5] was 117 nM and the Ki [6] was 4000 nM.
Work on `C[C@H]1ON=C(c2cccc(C(=N)N)c2)[C@@H]1C(=O)Nc1ccc(-c2ccccc2S(N)(=O)=O)cc1` yielded a Ki [8] of 1.8 nM, a Ki [5] of 110 nM and a Ki [6] of 4500 nM.
Work on `CC1(C(=O)Nc2ccc(-c3ccccc3S(N)(=O)=O)cc2)CC(c2cccc(C(=N)N)c2)=NO1` (stereo not drawn) yielded a Ki [5] of 120 nM.
